Columns and labels:
HEK293 GFP Parkin cells [1] = assay: High throughput small molecule screen for Parkin recruitment to mitochondria (high content imaging); assay type: cell-based; settings: for rank in the kinase inhibitor library screen (rank order by z-score): 4 μM, 16 h, then CCCP 2 h, rank out of 480, low rank = activator of Parkin recruitment, high rank = inhibitor; for % of cells with mitochondrial Parkin: CCCP only (DMSO pinned)
Procedure: 10 uL of 0.1 mg/mL Poly-D-Lys solution was added to 384-well plates for 5 minutes, followed by a PBS wash. Plates were dried for at least 2 hours. 50 μL of 600 000 HEK293 GFP Parkin cell/mL of DMEM was dispensed into each well. After 24 hours incubation to allow the cells to adhere, 200 nL of small molecules (or DMSO in columns 1, 2, 23 and 24) were pinned. Following a 16-hour incubation, 200 nL of 5 mM CCCP were added to all wells except columns 1 and 2, into which 200 nL of DMSO was added. Following 2-hour incubation, cells were fixed with 4% paraformaldehyde (PFA) and stained with 50 μL of 1 μg/mL DAPI solution for 15 minutes. After the final PBS wash, plates were ready for high content microscopy.
Images were acquired on IN Cell Analyzer 6000 (GE Healthcare), equipped with sCMOS camera (2048×2048), and 20x/0.45 NA Plan Fluor objective (Nikon) in open aperture mode using 1×1 binning. Image analysis was performed using Columbus Image Analysis System (PerkinElmer). Nuclei were initially detected in DAPI channel, followed by whole cell segmentation in GFP channel. Using PhenoLOGIC machine learning plug-in, cells were split into 2 sub-populations: cells with even GFP-Parkin distribution and cells where GFP-Parkin was localized to mitochondria. The percentage of cells with mitochondrial GFP-Parkin was determined per well. The molecules were then rank ordered based on z-score, which is calculated using the formula: […]
where x is the percentage of cells with mitochondrial GFP-Parkin for a specific small molecule, μ is the average percentage of cells with mitochondrial Parkin in positive control columns 23 and 24, where cells are treated with CCCP only.
These cell lines were screened across 2 biological replicates with compounds from the kinase inhibitor (n=480) and Prestwick (n=1120) collections. The 3-day screening protocol consisted of (1) seeding cells, (2) pinning small molecules at 4 μM concentration and (3) inducing mitophagy with CCCP, followed by processing of plates for high content imaging. Following image acquisition, DAPI staining was used to segment cells within each image. Supervised machine learning was used to classify cells into two classes: (1) cells with cytosolic Parkin distribution and (2) those with Parkin localized to mitochondria. […] Compounds which increased the proportion of class 2 cells across 2 biological replicates, compared to the CCCP-only treated cells (FIG. 10), as indicated by their z-score (FIG. 11), were considered hits.

PINK1 = PINK1 accumulation after mitochondrial damage (immunoblot); assay type: cell-based; settings: Ac220 pre-treatment, CCCP; HeLa GFP Parkin and SH-SY5Y cells
Procedure: (§1) A) HeLa cells expressing GFP Parkin WT and mito-dsRed were treated with either DMSO, 10 μM CCCP or 4 μM Ac220 in combination with CCCP. B) Cell lysates from HeLa cells pre-treated with either DMSO or 4 μM Ac220 prior to addition of 10 μM CCCP were separated by SDS-PAGE and immunoblotting was performed against Mfn2 and actin. C) Cells were pre-treated with either DMSO, 2 μM Ac220, 1 μM Ac220 prior to addition of 10 μM CCCP. D) Cells were pre-treated with indicated concentrations of Ac220 prior to addition of 10 μM CCCP for 1 hour. Cell lysates were separated by SDS-PAGE and immunoblotting was performed against Mfn2 and actin. E) Densitometry analysis of Mfn2 levels normalized to loading control […]. Data is presented as mean±s.d. F) HeLa GFP Parkin cells were transfected with HA-PINK1 and pre-treated with either DMSO or Ac220 prior to addition of CCCP and Mg132. G) HeLa GFP Parkin cells and H) SH-SY5Y cells were pre-treated with either DMSO or Ac220 prior to addition of CCCP for the indicated time. Immunoblotting was performed using antibodies against PINK1 and actin.

[2] = test system: HeLa cells expressing GFP Parkin WT and mito-dsRed; assay: Parkin recruitment after Ac220 pre-treatment and CCCP; assay type: cell-based; settings: Ac220 pre-treatment, 10 μM CCCP
Procedure: as §1

HeLa cells [3] = assay: Immunoblotting of Mfn2 degradation after Ac220 and CCCP; assay type: cell-based; settings: Ac220 pre-treatment, 10 μM CCCP
Procedure: as §1
Lysates were harvested using lysis buffer (0.1M Tris HCl, 0.01% SDS, pH 9) with 1× protease inhibitor cocktail (BioShop, PIC002.1). […] 12% SDS-PAGE gels were used to run samples to be analyzed for LC3 conversation and for Tom20 and 10% gels were run for all other samples. […]

ROCK1 = ROCK1 (Homo sapiens, UniProt Q13464); settings: biochemical and cell-based assays, review; cited from earlier work
ROCK2 = ROCK2 (Homo sapiens, UniProt O75116); settings: biochemical and cell-based assays, previous studies; cited from earlier work
HEK293 GFP Parkin cells [4] = assay: Parkin recruitment assay; assay type: cell-based
Procedure: HEK293 GFP Parkin cells were seeded into 12-well plates containing coverslips. Cells were treated with small molecules for 2 hours prior to mitophagy induction with 10 μM CCCP, unless indicated otherwise. Following fixation with 4% PFA, immunostaining was carried out using anti-ATP5A primary antibody and anti-mouse Alex Fluor 568.
To measure the percentage of cells with Parkin localized to mitochondria a 2 step process was employed: (1) whole cell segmentation based on GFP Parkin using CellProfiler software and (2) classification into Parkin distribution subpopulation using CellProfiler Analyst. The percentage of cells with Parkin localized to mitochondria was determined in each image. Images were taken at 20× magnification for this experiment, resulting in the classification of at least 300 cells in each treatment group per trial.

[5] = cited from earlier work
HeLa cells [6] = assay: Mito-QC assay (targeting of mitochondria to lysosomes); assay type: cell-based; settings: 50 μM chloroquine 16 hours pre-treatment
Procedure: HeLa cells were seeded into 6-well plates containing glass coverslips and allowed to adhere overnight. Cells were co-transfected with RGOMP25 and Cerulean-Parkin plasmids 24 hours prior to treatments. E-64 and leupeptin were added along with either DMSO or 10 μM CCCP for 6 hours prior followed by a PBS wash, fixation with 4% PFA and a final PBS wash prior to mounting onto glass slides with Fluoromount.
Cells were treated with 50 μM chloroquine for 16 hours prior to addition of E64, leupeptin, SR3677 and CCCP in the indicated treatment group. For the in vivo mitoQC assays, 5 7-day old male TH-GAL4>UAS-mitoQC were placed into vials containing water (control), sublethal 1 mM paraquat, 1 mM SR3677 alone and in combination with paraquat for 7 days. […] Fly brains were mounted in VectaShield™ mounting medium for imaging using the Zeiss LSM700 confocal fluorescence microscope with 40× 1.4 NA Oil Plan-APOCRAMAT objective and the appropriate lasers and filter. […]
Quantification of the RG assay was done using Fiji software. […] A red/green fluorescence intensity ratio was determined for each pixel. Pixels were considered red-only if the red/green fluorescence ratio was greater than or equal to 1.5. The area of red-only pixels over the total non-background area was determined and averaged across 4 independent trials in which at least 20 cells were quantified per treatment.

[7] = test system: HeLa cells stably expressing GFP parkin and mito-DsRed; assay: Mitochondrial clearance assay; assay type: cell-based; settings: pre-treated with DMSO, 24 hour 10 μM CCCP
Procedure: HeLa cells stably expressing GFP parkin and mito-DsRed were seeded into 12-well plates containing coverslips and allowed to adhere overnight. Cells were then treated with DMSO or 0.5 μM SR3677 for 2 hours prior to addition of 10 μM CCCP for 24 hours. Cells were then washed with PBS, fixed with 4% PFA and washed with PBS again prior to the mounting of coverslips onto glass slides. Mitochondrial clearance was quantified by counting the number of cells in each treatment to retain mito-DsRed signal. 3 independent trials were performed with at least 50 cells quantified per trial.

SH-SY5Y cells = assay: Cell viability by crystal violet staining; assay type: cell-based; settings: CCCP alone, 24 hours
Procedure: A) SH-SY5Y cells were pre-treated with either DMSO or 0.5 μM SR3677 prior to addition of either DMSO or 10 μM CCCP for 24 hours. Following treatment, cells were washed, fixed with 4% paraformaldehyde and stained with crystal violet dye. B) The OD at 550 nm was measured to assess crystal violet staining.
To determine whether these findings could be translated into dopaminergic neurons, the study was continued in the dopaminergic neuroblastoma SH-SY5Y cell line. Parkin undergoes a similar CCCP-dependent subcellular transition from cytosol to mitochondria in these cells^12. First, whether the viability of these cells would be improved by SR3677 was investigated. Initially, experiments were conducted using crystal violet staining as an indicator of cell viability. […] Next, SH-SY5Y cells were differentiated into a more neuron-like population according to protocols previously described^10 and ATP levels were measured. […] Varying concentrations of SR3677 were co-administered alongside the PD-causing toxin paraquat.

[8] = used in Japan; cited from earlier work

ROCK2, sequence (O75116 whole entry): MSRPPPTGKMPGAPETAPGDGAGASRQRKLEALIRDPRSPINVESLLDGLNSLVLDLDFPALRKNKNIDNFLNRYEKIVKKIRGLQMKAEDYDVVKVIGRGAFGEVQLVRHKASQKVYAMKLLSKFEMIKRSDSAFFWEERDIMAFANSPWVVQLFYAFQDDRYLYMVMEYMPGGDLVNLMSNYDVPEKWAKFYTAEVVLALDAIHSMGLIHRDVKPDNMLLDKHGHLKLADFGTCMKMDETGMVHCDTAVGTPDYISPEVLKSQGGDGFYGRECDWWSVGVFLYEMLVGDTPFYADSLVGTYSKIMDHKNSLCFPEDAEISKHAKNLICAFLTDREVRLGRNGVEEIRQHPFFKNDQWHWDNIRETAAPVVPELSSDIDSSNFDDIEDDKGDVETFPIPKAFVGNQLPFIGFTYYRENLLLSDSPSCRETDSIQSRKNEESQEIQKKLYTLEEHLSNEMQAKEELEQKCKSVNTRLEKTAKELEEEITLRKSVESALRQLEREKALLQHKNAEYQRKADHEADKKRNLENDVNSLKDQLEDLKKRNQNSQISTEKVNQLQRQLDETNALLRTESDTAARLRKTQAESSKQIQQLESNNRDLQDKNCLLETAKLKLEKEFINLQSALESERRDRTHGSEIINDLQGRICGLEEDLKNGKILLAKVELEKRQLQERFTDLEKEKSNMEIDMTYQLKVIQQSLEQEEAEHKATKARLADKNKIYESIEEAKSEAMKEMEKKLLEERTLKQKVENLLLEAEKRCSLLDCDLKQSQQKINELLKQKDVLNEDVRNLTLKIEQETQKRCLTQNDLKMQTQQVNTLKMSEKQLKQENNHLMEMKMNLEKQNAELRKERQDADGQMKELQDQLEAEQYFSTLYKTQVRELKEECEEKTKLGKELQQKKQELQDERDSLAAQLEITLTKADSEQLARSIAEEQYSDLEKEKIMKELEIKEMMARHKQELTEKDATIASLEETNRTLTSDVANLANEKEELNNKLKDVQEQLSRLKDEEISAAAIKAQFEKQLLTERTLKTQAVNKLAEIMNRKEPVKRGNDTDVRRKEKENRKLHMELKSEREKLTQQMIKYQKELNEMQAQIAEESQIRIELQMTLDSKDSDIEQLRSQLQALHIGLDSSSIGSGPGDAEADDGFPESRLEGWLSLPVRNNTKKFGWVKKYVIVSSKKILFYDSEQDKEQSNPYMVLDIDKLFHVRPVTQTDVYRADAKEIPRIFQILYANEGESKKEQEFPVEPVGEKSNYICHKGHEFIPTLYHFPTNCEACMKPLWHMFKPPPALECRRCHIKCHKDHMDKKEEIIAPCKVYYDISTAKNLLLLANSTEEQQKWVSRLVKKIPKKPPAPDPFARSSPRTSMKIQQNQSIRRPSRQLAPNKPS
ROCK1, sequence (Q13464 whole entry, species assumed): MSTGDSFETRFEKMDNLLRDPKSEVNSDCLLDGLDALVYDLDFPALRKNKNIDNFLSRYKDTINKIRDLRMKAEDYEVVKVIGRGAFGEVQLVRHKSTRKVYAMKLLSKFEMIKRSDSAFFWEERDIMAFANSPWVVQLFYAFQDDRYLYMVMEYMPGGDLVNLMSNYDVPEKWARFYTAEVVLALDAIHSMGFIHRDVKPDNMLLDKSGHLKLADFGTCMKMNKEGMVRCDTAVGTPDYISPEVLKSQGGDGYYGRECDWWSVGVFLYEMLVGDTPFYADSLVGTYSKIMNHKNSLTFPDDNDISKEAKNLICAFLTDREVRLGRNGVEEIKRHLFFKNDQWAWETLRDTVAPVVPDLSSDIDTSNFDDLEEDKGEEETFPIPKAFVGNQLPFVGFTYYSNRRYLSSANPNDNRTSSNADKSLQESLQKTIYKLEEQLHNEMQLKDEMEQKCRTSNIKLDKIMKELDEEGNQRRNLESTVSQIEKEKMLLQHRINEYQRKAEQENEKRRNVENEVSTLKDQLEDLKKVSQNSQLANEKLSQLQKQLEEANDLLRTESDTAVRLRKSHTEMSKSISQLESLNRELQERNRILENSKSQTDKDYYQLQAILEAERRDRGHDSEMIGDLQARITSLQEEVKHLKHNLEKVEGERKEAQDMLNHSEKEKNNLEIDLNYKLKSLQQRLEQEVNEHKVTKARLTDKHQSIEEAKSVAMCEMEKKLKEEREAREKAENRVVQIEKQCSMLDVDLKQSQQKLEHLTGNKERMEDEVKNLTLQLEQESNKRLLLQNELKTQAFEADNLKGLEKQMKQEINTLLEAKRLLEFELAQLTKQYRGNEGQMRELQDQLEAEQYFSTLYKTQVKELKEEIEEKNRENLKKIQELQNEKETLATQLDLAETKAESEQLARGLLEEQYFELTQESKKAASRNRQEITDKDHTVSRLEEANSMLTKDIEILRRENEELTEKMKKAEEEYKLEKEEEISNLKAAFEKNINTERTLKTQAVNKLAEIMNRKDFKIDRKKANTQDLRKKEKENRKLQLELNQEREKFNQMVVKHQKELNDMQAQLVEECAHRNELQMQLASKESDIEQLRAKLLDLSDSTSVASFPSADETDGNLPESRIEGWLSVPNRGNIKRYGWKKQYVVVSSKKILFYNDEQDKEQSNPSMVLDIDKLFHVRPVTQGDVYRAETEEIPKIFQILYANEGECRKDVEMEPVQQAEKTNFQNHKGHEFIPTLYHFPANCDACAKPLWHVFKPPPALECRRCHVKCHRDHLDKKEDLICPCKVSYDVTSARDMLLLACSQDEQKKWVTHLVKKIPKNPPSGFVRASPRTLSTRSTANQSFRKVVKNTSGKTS

Structure (SMILES): CC(C)(C)c1cc(NC(=O)Nc2ccc(-c3cn4c(n3)sc3cc(OCCN5CCOCC5)ccc34)cc2)no1 [Ac220]
- rank in the kinase inhibitor library screen (rank order by z-score) (HEK293 GFP Parkin cells [1]): 475/480
- PINK1 accumulation in response to mitochondrial damage (PINK1): fails to accumulate
- Parkin recruitment [2]: inhibited Parkin recruitment
- degradation of Mfn2 (HeLa cells [3]): inhibited

Structure (SMILES): C[C@@H](N)[C@H]1CC[C@H](C(=O)Nc2ccncc2)CC1 [Y27632]
- ROCK1 inhibition (ROCK1): sufficiently inhibit both ROCK1 and ROCK2
- ROCK2 inhibition (ROCK2): sufficiently inhibit both ROCK1 and ROCK2
- Parkin recruitment on re-test (HEK293 GFP Parkin cells [4]; 10 μM, 2-hour treatment, CCCP): recapitulated the effects observed following overnight incubation
- Parkin distribution in the absence of CCCP (HEK293 GFP Parkin cells [4]; compound alone): diffuse
- rank in the kinase inhibitor library screen (rank order by z-score) (HEK293 GFP Parkin cells [1]): 9/480
- cell permeability [5]: poor cell permeability

Structure (SMILES): CCN(CC)CCCC(C)Nc1ccnc2cc(Cl)ccc12 (centres unmarked) [chloroquine]
- effect on SR3677-mediated enhancement of mitophagy (HeLa cells [6]): abrogates SR3677-mediated enhancement of mitophagy

Structure (SMILES): N#CC(C#N)=NNc1cccc(Cl)c1 [CCCP, carbonyl cyanide m-chlorophenylhydrazone]
- % of cells with mitochondrial Parkin (HEK293 GFP Parkin cells [1]; Prestwick library screen): 71.2±2.6%
- % of cells with mitochondrial Parkin (HEK293 GFP Parkin cells [1]; kinase inhibitor library screen): 83.4±2.3%
- % of cells that retained mito-DsRed [7]: 47.5±8.25%
- crystal violet staining (SH-SY5Y cells): reduced the amount of staining

Structure (SMILES): O=S(=O)(c1cccc2cnccc12)N1CCCNCC1 [Fasudil]
- class in the screen (FIG. 1b) (HEK293 GFP Parkin cells [1]; ROCK inhibitors, 4 μM plus CCCP): Enhancers of Parkin recruitment
- safety and efficacy in vasospasm following subarachnoid hemorrhage [8]: safety and efficacy
